Assay [1] relates to SD rats with CCl4-induced hepatic fibrosis. Kind of assay: CCl4-induced hepatic fibrosis animal model. Type of assay: in vivo. To be noted: CCl4 8 weeks, polypeptides 6 mg/kg s.c. once a day, colchicine intragastric 5 times/week. As to the method: Source and strain: SPF level, SD rats, provided by Shanghai Xipuer-Bikai laboratory Animal Co., Ltd. (laboratory animal license: SCXK (hu) 2013-0016)
There were 10 rats in each group. Modeling was performed on the rats. Each group other than the blank group was injected with 40% CCl4 intraperitoneally twice a week, the first injection was performed at 3 mL/kg, and then administration was performed at 2 mL/kg. Administration was performed for 8 weeks, and a total of 16 injections were provided to induce hepatic fibrosis. After the intraperitoneal injection of CCl4 for the fourth time, polypeptide therapy was started on the next day, and administration was performed by subcutaneous injection once a day until the end of induction. After the intraperitoneal injection of CCl4 for the fourth time, colchicine was administrated on the next day at 200 μg/kg, 5 times a week, and intragastric administration therapy was implemented. After induction for 8 weeks, the administration was stopped. On the second day, the SD rats were dissected, blood was taken, and the liver tissue was taken and stored in a refrigerator at −80° C. for later use. The expressions of AST and ALT in serum and HYP in the rat liver tissue were detected.

The test system of assay [2] is SD rats with bleomycin-induced pulmonary fibrosis. Description: Bleomycin-induced pulmonary fibrosis animal model. It is filed as in vivo. To be noted: for Survival rate (%): bleomycin 5 mg/kg intratracheal, polypeptides 10 mg/kg subcutaneous twice a day for 14 days, positive drug Nintedanib intragastric once a day, model group 57.1%; for content of HYP in lung tissues, difference from model group / content of TGF-β1 in serum, difference from model group: polypeptides 10 mg/kg s.c. twice a day, Nintedanib 25 mg/kg intragastric once a day, 14 days. Here is the method: Source and strain: clean SD rats, provided by Comparative Medicine Center of Yangzhou University (laboratory animal production license: SCXK (Su) 2012-0004); Certification of Using of Laboratory Animal: SYXK (Su) 2012-0035).
SD rats were anesthetized by intraperitoneal injection of 1 mL/100 g 4% chloral hydrate. After anesthesia, the rats were fixed and their necks were disinfected by using cotton with 75% alcohol. The skin of the rat neck was longitudinally cut with scissors, and the fascia and muscle were longitudinally bluntly torn with tweezers to expose the trachea. A syringe was inserted into the trachea to inject 5 mg/kg bleomycin, while a blank group was injected with an equal amount of normal saline. Then a rat plate was quickly erected and rotated, the rats' breathing was observed, the neck wound was sterilized after rotation and was sewn, and an amoxicillin anti-inflammatory drug was sprinkled on the suture. After the operation, the rats were put back into a dry and clean cage for resting, waiting was performed for awakening. The rats were awakened after about 1-2 hours, and then fed normally. On the 7th day after modeling, modeling group animals randomly fell into a model group, a Nintedanib positive drug group, polypeptide I, II, III and IV dosage groups, and a normal control group, and the groups were administered separately for an administration cycle of 14 days. Living situations of rats were observed every day and their weights were weighed. After administration for 14 days, the eyeballs were removed and blood was taken, the rats were dissected, and lungs were taken. The content of TGF-β1 in serum and the content of HYP in lung tissues were detected.

The test system of a further assay is Streptococcus pneumoniae. Kind of assay: Mouse pneumonia model, bacterial pneumonia. It is filed as in vivo, BALB/C mice. Also on record: unit not given here. The note with it: nasal drip, average values + standard deviation. From the text: (§1) A mouse pneumonia model was successfully established by using a nasal drip method. BALB/C mice with a body weight of 18-24 g were selected, and then anesthetized with ether on day 0, day 1 and day 2, respectively, prepared Streptococcus pneumoniae bacteria solution, adenovirus concentrated solution, Mycoplasma pneumoniae, Chlamydia pneumoniae, protozoa and pneumonia fungi were slowly dropped into the nasal cavity of the mice, so that the bacteria solutions entered the trachea and bronchi, and the bacteria solutions were prevented from flowing into the esophagus during the operation to avoid inactivation of the bacteria solutions, so that the mouse pneumonia model was established. After the model was successfully established, the polypeptide according to the present disclosure was administered, as shown in FIG. 9 and Table 7. […] The experimental results are represented on the basis of average values+standard deviation.

The next assay concerns Mycoplasma pneumoniae. Kind of assay: Mouse pneumonia model, mycoplasma pneumonia. Type of assay: in vivo, BALB/C mice. Also on record: unit not given here. The note with it: nasal drip, average values + standard deviation.
Excerpt: as §1

In a further assay the test system is Chlamydia pneumoniae. Description: Mouse pneumonia model, chlamydia pneumonia. Type of assay: in vivo, BALB/C mice. Set-up: unit not given here. The note with it: nasal drip, average values + standard deviation.
Excerpt: as §1

In assay [3] the test system is mice with myocardial fibrosis. Kind of assay: Isoprenaline-induced myocardial fibrosis model. It is filed as in vivo. To be noted: BALB/c mice, isoprenaline 5 mg/kg 7 days; 12 mg/kg s.c. twice a day. As to the method: 1. Experimental Mice: 10-Week-Old Male BALB/c Mice (with an Average Weight of 20 g).
In the model group, the experimental mice were injected with isoprenaline (ISO) (5 mg/kg) subcutaneously on the back of the mice every day for 7 consecutive days, and the mice were injected with normal saline subcutaneously (200 μL/mouse) every day. In the blank group, normal saline was injected subcutaneously (200 μL/mouse) every day. While a model was made, polypeptide drugs were administrated for treatment by subcutaneous injection. After the 8th day, blood was taken and was centrifuged, the supernatant was taken, and the content of TGF-β1 in serum was detected.

For the next assay, the system named is protozoa. Description: Mouse pneumonia model, protozoal pneumonia. It is filed as in vivo, BALB/C mice. Also on record: unit not given here. The note with it: nasal drip, average values + standard deviation.
Excerpt: as §1

The test system of the next assay is adenovirus. Description: Mouse pneumonia model, viral pneumonia. It is filed as in vivo, BALB/C mice. Set-up: unit not given here. To be noted: nasal drip, average values + standard deviation.
Excerpt: as §1

For assay [4], the system named is SD rats with renal fibrosis. Description: Renal fibrosis model (ureter ligation). Type of assay: in vivo. The note with it: 6 mg/kg s.c. twice a day, 14 days. Here is the method:
Clean grade male SD rats, purchased from Nanjing Qinglong Mountain Animal Farm, and weighed 180-200 g at the time of purchase, 190-210 g at the beginning of modeling, and 180-200 g at the beginning of administration.
A renal fibrosis animal model was established. SD rats were anesthetized with 4% chloral hydrate, injected with 1 mL/100 g intraperitoneally, fixed to an operation board, and sterilized in an operation area for later use. […] Muscular layers and abdominal walls were sewed layer by layer, the suture was disinfected with alcohol. After SD rats woke up, the rats were put into a cage for feeding. In the blank group, ureter was not ligated, and other steps were the same.
Then, the animals fell into a blank group, a model group, and polypeptide administration groups, with 10 animals in each group, and the administration was started on the second day after the operation, and was performed for 14 days. After administration for 14 days, blood was taken and supernatant was taken to detect the content of TGF-β1 in serum.

In a further assay the test system is pneumonia fungi. Kind of assay: Mouse pneumonia model, fungal pneumonia. The note with it: nasal drip, average values + standard deviation. Also on record: unit not given here. It is filed as in vivo, BALB/C mice.
Excerpt: as §1

In the next assay the test system is mice with skin fibrosis. Kind of assay: Bleomycin-induced skin fibrosis model. It is filed as in vivo, C57/BL black mice. The note with it: C57/BL mice, bleomycin s.c. 28 days; 10 mg/kg s.c. twice a day. As to the method: Male C57/BL black mice aged 6-8 weeks, purchased from Nanjing Qinglong Mountain Animal Farm. Bleomycin (10 μg/mL) was injected subcutaneously every day for 28 days to form skin fibrosis. During the modeling period, the administration groups were given polypeptide drugs twice a day for treatment. After modeling, the mice were killed on the next day, and the skin tissue of the mouse back was taken to detect the content of HYP in the skin tissue. [table]

Assay [5] deals with multiple pulmonary infections. Kind of assay: Mouse pneumonia model, pneumonia caused by pulmonary infections. The note with it: nasal drip, average values + standard deviation. It is filed as in vivo, BALB/C mice. Also on record: unit not given here.
Excerpt: as §1

The mark [6] stands for this setting: bleomycin-induced pulmonary fibrosis.

Ends that are not written are not given here.

With `COc1cc2c(c(OC)c1OC)-c1ccc(OC)c(=O)cc1[C@@H](NC(C)=O)CC2` [Colchicine, reference compound], in assay [1], the “content of ALT in serum, difference from model group” value is “significantly lower than those in the model group”; the “content of AST in serum, difference from model group” value (“content of AST in serum, difference” for short) was “highly significantly different from the model group (** P<0.01)”; the “content of HYP in the liver tissue, difference from model group” value was “highly significantly different from the model group (*** P<0.001)”.

Regarding `COC(=O)c1ccc2c(c1)NC(=O)/C2=C(\Nc1ccc(N(C)C(=O)CN2CCN(C)CC2)cc1)c1ccccc1` [Nintedanib, reference compound], the “Survival rate (%)” value in assay [2] was 85.7%. Moreover, in assay [2] (setting [6]), the “content of HYP in lung tissues, difference from model group” value is listed as “highly significantly different from the model group (** P<0.01)” and the “content of TGF-β1 in serum, difference from model group” value (from here on “content of TGF-β1 in serum, difference”) is listed as “highly significantly different from the model group (*** P<0.001)”.

On to “PRCWCGEGGGGIVRRADRAAVPGGGGRGD (cysteine pairing not given here) [Polypeptide III]”, for which the “Inhibitory effect on pulmonary infections: Bacterial pneumonia” value (“Inhibitory effect … Bacterial pneumonia” for short) with Streptococcus pneumoniae was determined as 47.29 ± 8.76. Also, the “Inhibitory effect on pulmonary infections: Mycoplasma pneumonia” value (from here on “Inhibitory effect … Mycoplasma pneumonia”) with Mycoplasma pneumoniae was determined as 43.93 ± 5.53. The “Survival rate (%)” value in [2] is listed as 85.7%. Also, in assay [2] (setting [6]), the “content of HYP in lung tissues, difference from model group” value was “significantly different from the model group (*P<0.05)” and the “content of TGF-β1 in serum, difference” value is given as “highly significantly different from the model group (*** P<0.001)”. Moreover, in the assay with Chlamydia pneumoniae, the “Inhibitory effect on pulmonary infections: Chlamydia pneumonia” value (shortened to “Inhibitory effect … Chlamydia pneumonia”) was determined as 56.40 ± 5.49. Moreover, the “content of TGF-β1 in serum, difference” value in assay [3] is recorded as “highly significantly different from the model group (** P<0.01)”. Moreover, in the assay on protozoa, the “Inhibitory effect on pulmonary infections: Protozoal pneumonia” value (shortened to “Inhibitory effect … Protozoal pneumonia”) is on record as 64.29 ± 8.70. Also, in [1], the “content of AST in serum, difference” value was “highly significantly different from the model group (*** P<0.001)” and the “content of HYP in the liver tissue, difference from model group” value was “highly significantly different from the model group (*** P<0.001)”. Further, the “Inhibitory effect on pulmonary infections: Viral pneumonia” value (shortened to “Inhibitory effect … Viral pneumonia”) with adenovirus came to 67.49 ± 9.94. For the same molecule, in assay [4], the “content of TGF-β1 in serum, difference” value is recorded as “highly significantly different from the model group (** P<0.01)”. Also, the “Inhibitory effect on pulmonary infections: Fungal pneumonia” value (shortened to “Inhibitory effect … Fungal pneumonia”) in the assay on pneumonia fungi is reported as 62.88 ± 5.94. Also, the “content of HYP in the skin tissue, difference from model group” value in the assay on mice with skin fibrosis is recorded as “highly significantly different from the model group (*P<0.05)”. The “Inhibitory effect on pulmonary infections: Pneumonia caused by pulmonary infections” value (“Inhibitory effect … by pulmonary infections” below) in assay [5] came out at 56.81 ± 3.13.

Take “PRCWRGEGGGGIAVVRRADRAPGGGGRGD [Polypeptide I]”: the “Inhibitory effect … Bacterial pneumonia” value in the assay with Streptococcus pneumoniae is 34.83 ± 7.95. The “Inhibitory effect … Mycoplasma pneumonia” value with Mycoplasma pneumoniae is 36.48 ± 5.55. Further, in assay [2], the “Survival rate (%)” value was 85.7%. In addition, the “reduction of HYP in lung tissues compared with the positive drug” value in assay [2] (bleomycin-induced pulmonary fibrosis, comparison with Nintedanib) is “better effects than the positive drug”. In [2] (setting [6]), the “content of HYP in lung tissues, difference from model group” value is “highly significantly different from the model group (*** P<0.001)” and the “content of TGF-β1 in serum, difference” value was “highly significantly different from the model group (*** P<0.001)”. Besides, the “Inhibitory effect … Chlamydia pneumonia” value in the assay with Chlamydia pneumoniae amounted to 37.18 ± 7.46. Also, the “content of TGF-β1 in serum, difference” value in [3] is reported as “highly significantly different from the model group (** P<0.01)”. Further, the “Inhibitory effect … Protozoal pneumonia” value in the assay with protozoa was 48.16 ± 5.46. Also, in assay [1], the “content of AST in serum, difference” value was “highly significantly different from the model group (*** P<0.001)” and the “content of HYP in the liver tissue, difference from model group” value is reported as “highly significantly different from the model group (*** P<0.001)”. Also, in the assay with adenovirus, the “Inhibitory effect … Viral pneumonia” value turned out to be 50.00 ± 6.84. The “content of TGF-β1 in serum, difference” value in assay [4] is listed as “highly significantly different from the model group (*** P<0.001)”. In addition, the “Inhibitory effect … Fungal pneumonia” value in the assay with pneumonia fungi was 47.54 ± 9.68. In the assay on mice with skin fibrosis, the “content of HYP in the skin tissue, difference from model group” value was “highly significantly different from the model group (** P<0.01)”. Besides, in assay [5], the “Inhibitory effect … by pulmonary infections” value is recorded as 47.52 ± 7.88.

Take Penicillin [reference compound]: the “Inhibitory effect … Bacterial pneumonia” value in the assay on Streptococcus pneumoniae turned out to be 37.05 ± 4.35. In the assay with Mycoplasma pneumoniae, the “Inhibitory effect … Mycoplasma pneumonia” value was determined as 39.78 ± 5.23. Further, in the assay on Chlamydia pneumoniae, the “Inhibitory effect … Chlamydia pneumonia” value was found to be 32.57 ± 3.13. In the assay with protozoa, the “Inhibitory effect … Protozoal pneumonia” value was 40.34 ± 3.02. The “Inhibitory effect … Viral pneumonia” value in the assay with adenovirus is 48.07 ± 2.07. For the same molecule, in the assay with pneumonia fungi, the “Inhibitory effect … Fungal pneumonia” value stood at 36.87 ± 2.82. Moreover, in [5], the “Inhibitory effect … by pulmonary infections” value is 39.56 ± 4.35.

(Values after patent US12398196B2, “Fused polypeptide with multifunctional activities and use thereof” (NANJING ANJI BIOLOGICAL TECHNOLOGY CO., LTD., priority 2019, dated 2025).)
